Reference: patent US12157746B2, “Tetrahydro-1H-pyrazino[2,1-a]isoindolylquinoline compounds for the treatment of autoimmune disease” (F. HOFFMANN-LA ROCHE AG, priority 2018, dated 2024)

molecular target: T1, human TLR8 (Homo sapiens, UniProt Q9NR97); experiment: HEK293-Blue-hTLR-8 cells assay; type: cell-based; conditions: HEK293-Blue-hTLR8 cells, R848 stimulation, 20 hrs, SEAP reporter; read-out: HEK/hTLR8 IC50
T1 sequence (Q9NR97 27-1041): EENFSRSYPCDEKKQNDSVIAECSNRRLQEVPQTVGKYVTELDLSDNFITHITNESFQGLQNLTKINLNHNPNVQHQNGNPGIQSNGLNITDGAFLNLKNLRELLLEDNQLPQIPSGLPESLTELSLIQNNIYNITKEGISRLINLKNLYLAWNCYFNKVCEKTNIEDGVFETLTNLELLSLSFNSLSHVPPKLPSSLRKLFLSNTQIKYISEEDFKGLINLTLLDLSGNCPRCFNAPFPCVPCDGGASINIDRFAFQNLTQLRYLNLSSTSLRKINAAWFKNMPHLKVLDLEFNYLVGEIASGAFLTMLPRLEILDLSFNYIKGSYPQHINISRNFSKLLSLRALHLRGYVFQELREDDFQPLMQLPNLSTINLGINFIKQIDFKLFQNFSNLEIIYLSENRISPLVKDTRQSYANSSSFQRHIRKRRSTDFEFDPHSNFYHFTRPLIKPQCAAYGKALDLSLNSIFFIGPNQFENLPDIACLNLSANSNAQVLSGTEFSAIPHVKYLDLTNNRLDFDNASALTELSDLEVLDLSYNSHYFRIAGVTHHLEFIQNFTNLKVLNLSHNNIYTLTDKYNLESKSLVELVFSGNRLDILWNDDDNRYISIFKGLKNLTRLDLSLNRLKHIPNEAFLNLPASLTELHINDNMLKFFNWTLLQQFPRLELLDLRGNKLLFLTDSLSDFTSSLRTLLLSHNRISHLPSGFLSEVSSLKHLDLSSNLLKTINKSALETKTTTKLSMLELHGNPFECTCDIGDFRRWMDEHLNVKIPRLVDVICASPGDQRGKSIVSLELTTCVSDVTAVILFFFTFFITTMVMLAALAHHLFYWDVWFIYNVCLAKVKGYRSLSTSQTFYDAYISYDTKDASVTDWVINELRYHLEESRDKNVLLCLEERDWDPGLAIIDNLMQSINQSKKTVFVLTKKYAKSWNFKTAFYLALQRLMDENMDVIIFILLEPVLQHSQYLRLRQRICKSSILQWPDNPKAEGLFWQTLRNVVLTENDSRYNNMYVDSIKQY
Excerpt: HEK293-Blue-hTLR-8 Cells Assay:
A stable HEK293-Blue-hTLR-8 cell line was purchased from InvivoGen (Cat. #: hkb-htlr8, San Diego, California, USA). These cells were originally designed for studying the stimulation of human TLR8 by monitoring the activation of NF-κB. A SEAP (secreted embryonic alkaline phosphatase) reporter gene was placed under the control of the IFN-β minimal promoter fused to five NF-κB and AP-1-binding sites. The SEAP was induced by activating NF-κB and AP-1 via stimulating HEK-Blue hTLR8 cells with TLR8 ligands. Therefore the reporter expression was declined by TLR8 antagonist under the stimulation of a ligand, such as R848, for incubation of 20 hrs. The cell culture supernatant SEAP reporter activity was determined using QUANTI-Blue™kit (Cat. #: rep-qb1, Invivogen, San Diego, Ca, USA) at a wavelength of 640 nm, a detection medium that turns purple or blue in the presence of alkaline phosphatase.
HEK293-Blue-hTLR8 cells were incubated at a density of 250,000-450,000 cells/mL in a volume of 170 μL in a 96-well plate in Dulbecco's Modified Eagle's medium (DMEM) containing 4.5 g/L glucose, 50 U/mL penicillin, […], […], 2 mM L-glutamine, 10% (v/v) heat-inactivated fetal bovine serum with addition of 20 μL test compound 1n a serial dilution in the presence of final DMSO at 1% and 10 μL of 60 uM R848 in above DMEM, perform incubation under 37° C. in a CO2 incubator for 20 hrs. Then 20 μL of the supernatant from each well was incubated with 180 μL Quanti-blue substrate solution at 37° C. for 2 hrs and the absorbance was read at 620-655 nm using a spectrophotometer. The signaling pathway that TLR8 activation leads to downstream NF-κB activation has been widely accepted, and therefore similar reporter assay was modified for evaluating TLR8 antagonist.

`CN[C@@H]1CN(c2ccc3c(c2)CN2[C@H](C)CN(c4ccc(C#N)c5ncccc45)C[C@H]32)C[C@H]1O` [Example 43, 5-[(4R,10bS)-4-methyl-8-[(3R,4R)-3-hydroxy-4-(methylamino)pyrrolidin-1-yl]-3,4,6,10b-tetrahydro-1H-pyrazino[2,1-a]isoindol-2-yl]quinoline-8-carbonitrile] and `C[C@@H]1CN(c2ccc(C#N)c3ncccc23)C[C@@H]2c3ccc(N4C[C@H](N)[C@@H](F)C4)cc3CN12` [Example 49, 5-[(4R,10bS)-8-[(3S,4S)-3-amino-4-fluoro-pyrrolidin-1-yl]-4-methyl-3,4,6,10b-tetrahydro-1H-pyrazino[2,1-a]isoindol-2-yl]quinoline-8-carbonitrile] cannot be ordered by IC50: < 3.2 nM for the first, 0.6 nM for the second.

`C[C@@H]1CN(c2ccc(C#N)c3ncccc23)C[C@@H]2c3cccc(N4CCNCC4)c3CN12` [Example 8, 5-[(4R,10bS)-4-methyl-7-piperazin-1-yl-3,4,6,10b-tetrahydro-1H-pyrazino[2,1-a]isoindol-2-yl]quinoline-8-carbonitrile] and `C[C@@H]1CN(c2ccc(C#N)c3ncccc23)C[C@@H]2c3ccc(N4CCNC[C@@](C)(O)C4)cc3CN12` [Example 55B, 5-[(4R,10bS)-8-[(6R)-6-hydroxy-6-methyl-1,4-diazepan-1-yl]-4-methyl-3,4,6,10b-tetrahydro-1H-pyrazino[2,1-a]isoindol-2-yl]quinoline-8-carbonitrile] cannot be ordered by IC50: < 3.2 nM for the first, < 3.2 nM for the second.

`[2H]c1ccc2c(N3C[C@@H](C)N4Cc5cc(N6CC7CNCC(C6)O7)ccc5[C@H]4C3)ccc(C#N)c2n1` [Example 93, 5-[(4R,10bS)-4-methyl-8-(9-oxa-3,7-diazabicyclo[3.3.1]nonan-3-yl)-3,4,6,10b-tetrahydro-1H-pyrazino[2,1-a]isoindol-2-yl]-2-deuterio-quinoline-8-carbonitrile] and `C[C@@H]1CN(c2ccc(C#N)c3ncccc23)C[C@@H]2c3ccc(N4CC[C@@H](N)C4)cc3CN12` [Example 20, 5-[(4R,10bS)-8-[(3R)-3-aminopyrrolidin-1-yl]-4-methyl-3,4,6,10b-tetrahydro-1H-pyrazino[2,1-a]isoindol-2-yl]quinoline-8-carbonitrile] cannot be ordered by IC50: 2.1 nM for the first, < 3.2 nM for the second.

`C[C@@H]1CN(c2ccc(C#N)c3ncccc23)C[C@@H]2c3ccc(N[C@H]4CNC[C@@H]4F)cc3CN12` [Example 31, 5-[(4R,10bS)-8-[[(3S,4S)-4-fluoropyrrolidin-3-yl]amino]-4-methyl-3,4,6,10b-tetrahydro-1H-pyrazino[2,1-a]isoindol-2-yl]quinoline-8-carbonitrile] and `C[C@@H]1CN(c2ccc(C#N)c3ncccc23)C[C@@H]2c3ccc(N[C@H]4CNC[C@H]4F)cc3CN12` [Example 30, 5-[(4R,10bS)-8-[[(3S,4R)-4-fluoropyrrolidin-3-yl]amino]-4-methyl-3,4,6,10b-tetrahydro-1H-pyrazino[2,1-a]isoindol-2-yl]quinoline-8-carbonitrile] cannot be ordered by IC50: < 3.2 nM for the first, < 3.2 nM for the second.

`C[C@@H]1CN(c2ccc(C#N)c3ncccc23)C[C@@H]2c3ccc(N4CCC(N)(CO)C4)cc3CN12` (stereo partly drawn) [Example 19, 5-[(4R,10bS)-8-[3-amino-3-(hydroxymethyl)pyrrolidin-1-yl]-4-methyl-3,4,6,10b-tetrahydro-1H-pyrazino[2,1-a]isoindol-2-yl]quinoline-8-carbonitrile] and `C[C@@H]1CN(c2ccc(C#N)c3ncccc23)C[C@@H]2c3ccc(N4CCOC5(CNC5)C4)cc3CN12` [Example 24, 5-[(4R,10bS)-4-methyl-8-(5-oxa-2,8-diazaspiro[3.5]nonan-8-yl)-3,4,6,10b-tetrahydro-1H-pyrazino[2,1-a]isoindol-2-yl]quinoline-8-carbonitrile] cannot be ordered by IC50: < 3.2 nM for the first, < 3.2 nM for the second.

`CO[C@@H]1CNC[C@H]1Nc1ccc2c(c1)CN1[C@H](C)CN(c3ccc(C#N)c4ncccc34)C[C@H]21` [Example 34, 5-[(4R,10bS)-8-[[(3R,4R)-4-methoxypyrrolidin-3-yl]amino]-4-methyl-3,4,6,10b-tetrahydro-1H-pyrazino[2,1-a]isoindol-2-yl]quinoline-8-carbonitrile] and `C[C@@H]1CN(c2ccc(C#N)c3nccnc23)C[C@@H]2c3ccc(N4CCNCC4)cc3CN12` [Example 7, 8-[(4R,10bS)-4-methyl-8-piperazin-1-yl-3,4,6,10b-tetrahydro-1H-pyrazino[2,1-a]isoindol-2-yl]quinoxaline-5-carbonitrile] cannot be ordered by IC50: < 3.2 nM for the first, < 3.2 nM for the second.

First: C[C@@H]1CN(c2ccc(C#N)n3nccc23)C[C@@H]2c3ccc(N4CCOC[C@H](N)C4)cc3CN12 [Example 101, 4-[(4R,10bS)-8-[(6R)-6-amino-1,4-oxazepan-4-yl]-4-methyl-3,4,6,10b-tetrahydro-1H-pyrazino[2,1-a]isoindol-2-yl]pyrazolo[1,5-a]pyridine-7-carbonitrile]
Second: C[C@@H]1CN(c2ccc3c(c2)CN2[C@H](C)CN(c4ccc(C#N)n5nccc45)C[C@H]32)CCN1 [Example 97, 4-[(4R,10bS)-4-methyl-8-[(3R)-3-methylpiperazin-1-yl]-3,4,6,10b-tetrahydro-1H-pyrazino[2,1-a]isoindol-2-yl]pyrazolo[1,5-a]pyridine-7-carbonitrile]
The IC50 of the first is 5.2-fold higher: 5.2 nM for the first, 1 nM for the second. The second is the more potent here.

`C[C@@H]1CN(c2ccc(C#N)n3nccc23)C[C@@H]2c3ccc(N4C[C@H](N)[C@@H](O)C4)cc3CN12` [Example 111, 4-[(4R,10bS)-8-[(3S,4S)-3-amino-4-hydroxy-pyrrolidin-1-yl]-4-methyl-3,4,6,10b-tetrahydro-1H-pyrazino[2,1-a]isoindol-2-yl]pyrazolo[1,5-a]pyridine-7-carbonitrile] and `CO[C@H]1CCN(c2ccc3c(c2)CN2[C@H](C)CN(c4ccc(C#N)n5nccc45)C[C@H]32)C[C@H]1N` [Example 106, 4-[(4R,10bS)-8-[(3R,4S)-3-amino-4-methoxy-1-piperidyl]-4-methyl-3,4,6,10b-tetrahydro-1H-pyrazino[2,1-a]isoindol-2-yl]pyrazolo[1,5-a]pyridine-7-carbonitrile] are within 1.5-fold of each other in IC50: 2 nM for the first, 2.9 nM for the second.

molecular target: T2, hERG K+ channel (Homo sapiens, UniProt Q12809); experiment: hERG channel inhibition assay; type: cell-based; conditions: CHO cells expressing hERG, patch-clamp (voltage-clamp, whole-cell)
T2 construct: expressed in transfected cells; host or cells: CHO (Chinese hamster ovary) cells, CHOhERG
T2 sequence (Q12809 whole entry): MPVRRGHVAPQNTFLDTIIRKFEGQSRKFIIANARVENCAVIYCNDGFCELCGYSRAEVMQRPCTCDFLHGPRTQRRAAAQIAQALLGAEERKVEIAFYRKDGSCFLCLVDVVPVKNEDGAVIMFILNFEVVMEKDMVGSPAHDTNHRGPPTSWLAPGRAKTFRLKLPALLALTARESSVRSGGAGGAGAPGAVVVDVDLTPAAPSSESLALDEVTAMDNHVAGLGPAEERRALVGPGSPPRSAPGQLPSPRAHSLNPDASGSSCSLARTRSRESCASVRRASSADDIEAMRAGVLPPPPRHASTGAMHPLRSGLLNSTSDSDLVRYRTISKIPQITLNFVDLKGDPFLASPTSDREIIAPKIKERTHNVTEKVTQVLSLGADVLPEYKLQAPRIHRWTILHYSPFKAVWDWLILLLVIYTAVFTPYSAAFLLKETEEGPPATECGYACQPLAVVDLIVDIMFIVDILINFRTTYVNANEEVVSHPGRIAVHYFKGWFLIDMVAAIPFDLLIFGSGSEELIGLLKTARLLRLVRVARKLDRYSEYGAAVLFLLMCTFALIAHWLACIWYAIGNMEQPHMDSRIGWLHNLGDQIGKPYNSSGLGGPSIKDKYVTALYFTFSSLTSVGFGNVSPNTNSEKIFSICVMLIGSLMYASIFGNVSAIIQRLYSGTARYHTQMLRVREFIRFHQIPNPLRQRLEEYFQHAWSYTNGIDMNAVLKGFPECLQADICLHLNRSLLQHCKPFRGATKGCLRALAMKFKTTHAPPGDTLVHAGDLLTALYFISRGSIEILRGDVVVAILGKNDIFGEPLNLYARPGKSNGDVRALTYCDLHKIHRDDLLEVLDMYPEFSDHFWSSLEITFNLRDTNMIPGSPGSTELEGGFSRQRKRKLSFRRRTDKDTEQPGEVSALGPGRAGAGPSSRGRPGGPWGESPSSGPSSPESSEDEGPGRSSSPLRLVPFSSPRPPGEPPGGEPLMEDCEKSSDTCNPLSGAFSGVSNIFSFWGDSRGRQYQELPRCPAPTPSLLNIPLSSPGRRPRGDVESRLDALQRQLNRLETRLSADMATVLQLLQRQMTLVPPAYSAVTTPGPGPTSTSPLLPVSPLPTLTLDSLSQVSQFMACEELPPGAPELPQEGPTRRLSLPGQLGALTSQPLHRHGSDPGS
Experimental: hERG Channel Inhibition Assay
The hERG K^+ channels were cloned in humans and stably expressed in a CHO (Chinese hamster ovary) cell line. CHOhERG cells were used for patch-clamp (voltage-clamp, whole-cell) experiments. Cells were stimulated by a voltage pattern to activate hERG channels and conduct IKhERG currents (rapid delayed outward rectifier potassium current of the hERG channel). After the cells were stabilized for a few minutes, the amplitude and kinetics of IKhERG were recorded at a stimulation frequency of 0.1 Hz (6 bpm). Thereafter, the test compound was added to the preparation at increasing concentrations. For each concentration, an attempt was made to reach a steady-state effect, usually, this was achieved within 3-10 min at which time the next highest concentration was applied. The amplitude and kinetics of IKhERG are recorded in each concentration of the drug which were compared to the control values (taken as 100%). (references: Redfem W S, Carlsson L, Davis A S, Lynch W G, MacKenzie I, Palethorpe S, Siegl P K, Strang I, Sullivan A T, Wallis R, Camm A J, Hammond T G. 2003; Relationships between preclinical cardiac electrophysiology, clinical QT interval prolongation and torsade de pointes for a broad range of drugs: evidence for a provisional safety margin in drug development. Cardiovasc. Res. 58:32-45, Sanguinetti M C, Tristani-Firouzi M. 2006; hERG potassium channels and cardiac arrhythmia. Nature 440:463-469, Webster R, Leishman D, Walker D. 2002; Towards a drug concentration effect relationship for QT prolongation and torsades de pointes. Curr. Opin. Drug Discov. Devel. 5:116-26).

For `CN[C@@H]1CN(c2ccc3c(c2)CN2[C@H](C)CN(c4ccc(C#N)c5ncccc45)C[C@H]32)C[C@H]1O` [Example 43, 5-[(4R,10bS)-4-methyl-8-[(3R,4R)-3-hydroxy-4-(methylamino)pyrrolidin-1-yl]-3,4,6,10b-tetrahydro-1H-pyrazino[2,1-a]isoindol-2-yl]quinoline-8-carbonitrile], the IC50 was > 20000 nM.

same assay, conditions: human, CHO cells stably expressing hERG, patch-clamp (voltage-clamp, whole-cell)

`CN[C@@H]1CN(c2ccc3c(c2)CN2[C@H](C)CN(c4ccc(C#N)c5ncccc45)C[C@H]32)C[C@H]1O` [Example 43, 5-[(4R,10bS)-4-methyl-8-[(3R,4R)-3-hydroxy-4-(methylamino)pyrrolidin-1-yl]-3,4,6,10b-tetrahydro-1H-pyrazino[2,1-a]isoindol-2-yl]quinoline-8-carbonitrile] gave an IC20 of 5200 nM.
